Measurements from PubChem BioAssay AID248 (DTP/NCI, 2004).
“And” between values parts separate entries of the source, which are not always exact repeats. Equal entries are not always repeated. Inconclusive results and toxic doses are left out. No stated cut-off is given here; in the data, active means T/C of 150% or more; inactive means T/C below 125%.

System: L1210 leukemia ip in BDF1 mice, survival T/C
Test: NCI In Vivo Anticancer Drug Screen. Data for tumor model L1210 Leukemia (intraperitoneal) in B6D2F1 (BDF1) mice
Conditions: endpoint: mean survival time, higher = longer survival
In short: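 Value reflects the ratio of survival in compound-treated mice to survival in vehicle-treated controls, with both groups carrying the same transplanted tumor.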

[1] = dose: 100.0 mg/kg/injection, schedule: Q01DX009 (ip), vehicle: saline with Tween-80
[2] = dose: 200.0 mg/kg/injection, schedule: Q01DX009 (ip), vehicle: saline with Tween-80
[3] = dose: 400.0 mg/kg/injection, schedule: Q01DX009 (ip), vehicle: saline with Tween-80
[4] = dose: 100.0 mg/kg/injection, schedule: Q04DX003 (ip), vehicle: saline with Tween-80
[5] = dose: 200.0 mg/kg/injection, schedule: Q04DX003 (ip), vehicle: saline with Tween-80
[6] = dose: 400.0 mg/kg/injection, schedule: Q04DX003 (ip), vehicle: saline with Tween-80
[7] = dose: 50.0 mg/kg/injection, schedule: Q01DX001 (ip), vehicle: saline
[8] = dose: 100.0 mg/kg/injection, schedule: Q01DX001 (ip), vehicle: saline
[9] = dose: 200.0 mg/kg/injection, schedule: Q01DX001 (ip), vehicle: saline
[10] = dose: 400.0 mg/kg/injection, schedule: Q01DX001 (ip), vehicle: saline

Measured: T/C

CCCCCCCCCCCC[n+]1cccc(C)c1
inactive: dose: 5.0 mg/kg/injection, schedule: Q01DX001 (ip), vehicle: saline 94 % of control

C[N+](C)(C)c1ccc(N2C(=O)C3C4c5ccccc5C(C3C2=O)[n+]2ccccc24)cc1 (configuration not stated)
inactive: dose: 1.56 mg/kg/injection, schedule: Q01DX009 (ip), vehicle: Klucel (hydroxypropylcellulose) (HPC) 103 % of control | dose: 3.12 mg/kg/injection, schedule: Q01DX009 (ip), vehicle: Klucel (hydroxypropylcellulose) (HPC) 97 % of control | dose: 6.25 mg/kg/injection, schedule: Q01DX009 (ip), vehicle: Klucel (hydroxypropylcellulose) (HPC) 100 % of control | dose: 12.5 mg/kg/injection, schedule: Q04DX003 (ip), vehicle: saline 101 % of control | dose: 25.0 mg/kg/injection, schedule: Q04DX003 (ip), vehicle: saline 94 % of control

Cc1cc(=O)cc(C)n1C
inactive: [1] 96 % of control | [2] 100 % of control | [3] 92 % of control

S=c1[nH]nc(NC2CCCCC2)s1
inactive: dose: 100.0 mg/kg/injection, schedule: Q01DX009 (ip), vehicle: other 91 % of control | dose: 100.0 mg/kg/injection, schedule: Q04DX003 (ip), vehicle: saline 88 % of control | dose: 200.0 mg/kg/injection, schedule: Q04DX003 (ip), vehicle: saline 91 % of control | dose: 400.0 mg/kg/injection, schedule: Q04DX003 (ip), vehicle: saline 86 % of control

CCOc1cc(/C=N\Nc2nncn2N)c(C)cc1N(CCCl)CCCl
inactive: dose: 1.3 mg/kg/injection, schedule: Q01DX015 (ip), vehicle: carboxymethylcellulose (CMC) 107 % of control | dose: 1.5 mg/kg/injection, schedule: Q01DX015 (ip), vehicle: carboxymethylcellulose (CMC) 120 % of control | dose: 2.6 mg/kg/injection, schedule: Q01DX015 (ip), vehicle: carboxymethylcellulose (CMC) 100 % of control | dose: 15.0 mg/kg/injection, schedule: Q01DX015 (ip), vehicle: carboxymethylcellulose (CMC) 102 % of control and 109 % of control | dose: 22.0 mg/kg/injection, schedule: Q01DX001 (ip), vehicle: carboxymethylcellulose (CMC) 118 % of control | dose: 50.0 mg/kg/injection, schedule: Q01DX001 (ip), vehicle: carboxymethylcellulose (CMC) 110 % of control | dose: 100.0 mg/kg/injection, schedule: Q01DX001 (ip), vehicle: carboxymethylcellulose (CMC) 123 % of control | dose: 200.0 mg/kg/injection, schedule: Q01DX001 (ip), vehicle: carboxymethylcellulose (CMC) 89 % of control

CCCCN(C#N)CC(C)(C)[N+](=O)[O-]
inactive: dose: 111.0 mg/kg/injection, schedule: Q01DX Z (ip), vehicle: methylcellulose (MC) 103 % of control | dose: 166.0 mg/kg/injection, schedule: Q01DX Z (ip), vehicle: methylcellulose (MC) 97 % of control | dose: 250.0 mg/kg/injection, schedule: Q01DX Z (ip), vehicle: methylcellulose (MC) 108 % of control

CSc1ccc(OC(=O)Nc2ccc(Cl)c(Cl)c2)cc1C
inactive: dose: 100.0 mg/kg/injection, schedule: Q01DX009 (ip), vehicle: Klucel (hydroxypropylcellulose) (HPC) 106 % of control | dose: 100.0 mg/kg/injection, schedule: Q04DX003 (ip), vehicle: Klucel (hydroxypropylcellulose) (HPC) 88 % of control | dose: 200.0 mg/kg/injection, schedule: Q01DX009 (ip), vehicle: Klucel (hydroxypropylcellulose) (HPC) 92 % of control | dose: 200.0 mg/kg/injection, schedule: Q04DX003 (ip), vehicle: Klucel (hydroxypropylcellulose) (HPC) 93 % of control | dose: 400.0 mg/kg/injection, schedule: Q01DX009 (ip), vehicle: Klucel (hydroxypropylcellulose) (HPC) 92 % of control | dose: 400.0 mg/kg/injection, schedule: Q04DX003 (ip), vehicle: Klucel (hydroxypropylcellulose) (HPC) 88 % of control

CC/C=C(/C)CCC
inactive: [4] 93 % of control | [5] 93 % of control | [6] 98 % of control

O=S(=O)(O)c1cc(Cl)cc(N=Nc2ccc(O)cc2O)c1O
inactive: [7] 98 % of control | [8] 98 % of control | [9] 104 % of control | [10] 98 % of control

c1ccc(-c2nc(-c3ccccc3)c(-c3ccccc3)nc2-c2ccccc2)cc1
inactive: dose: 100.0 mg/kg/injection, schedule: Q01DX001 (ip), vehicle: gum acacia 89 % of control | dose: 200.0 mg/kg/injection, schedule: Q01DX001 (ip), vehicle: gum acacia 91 % of control | dose: 400.0 mg/kg/injection, schedule: Q01DX001 (ip), vehicle: gum acacia 86 % of control

CCCCN(CCCC)C(=O)CC(C)(O)c1ccccc1 (configuration not stated)
inactive: [7] 96 % of control | [8] 107 % of control | [9] 94 % of control | [10] 96 % of control

O=C1C(CO)=C[C@@H](O)[C@H]2O[C@@H]12
inactive: dose: 3.0 mg/kg/injection, schedule: Q01DX009 (ip), vehicle: saline 93 % of control | dose: 6.0 mg/kg/injection, schedule: Q01DX009 (ip), vehicle: saline 93 % of control | dose: 12.0 mg/kg/injection, schedule: Q01DX009 (ip), vehicle: saline 95 % of control | dose: 25.0 mg/kg/injection, schedule: Q01DX001 (ip), vehicle: saline 98 % of control | dose: 25.0 mg/kg/injection, schedule: Q01DX009 (ip), vehicle: saline 98 % of control | [7] 121 % of control | dose: 50.0 mg/kg/injection, schedule: Q01DX009 (ip), vehicle: saline 121 % of control | dose: 75.0 mg/kg/injection, schedule: Q01DX009 (ip), vehicle: saline 102 % of control | [8] 103 % of control and 123 % of control | dose: 150.0 mg/kg/injection, schedule: Q01DX009 (ip), vehicle: saline 109 % of control | [9] 106 % of control | [10] 111 % of control

COC(=O)C1(C)CCCC2(C)C3CCC(C(C)C)C(CO)C3C(CO)CC12 (configuration not stated)
inactive: dose: 100.0 mg/kg/injection, schedule: Q04DX003 (ip), vehicle: other 107 % of control | dose: 200.0 mg/kg/injection, schedule: Q04DX003 (ip), vehicle: other 104 % of control | dose: 400.0 mg/kg/injection, schedule: Q04DX003 (ip), vehicle: other 107 % of control

COC(=O)C1(C(=O)OC)CC1CCl (configuration not stated)
inactive: [1] 96 % of control | [4] 101 % of control | [2] 105 % of control | [5] 101 % of control | [3] 93 % of control | [6] 95 % of control

O=c1[nH]c(C(F)(F)F)c(CCc2ccccc2)c(=O)[nH]1
inactive: dose: 100.0 mg/kg/injection, schedule: Q01DX001 (ip), vehicle: Klucel (hydroxypropylcellulose) (HPC) 103 % of control | dose: 200.0 mg/kg/injection, schedule: Q01DX001 (ip), vehicle: Klucel (hydroxypropylcellulose) (HPC) 110 % of control | dose: 400.0 mg/kg/injection, schedule: Q01DX001 (ip), vehicle: Klucel (hydroxypropylcellulose) (HPC) 107 % of control

O=C1OCC/C1=C/c1cccc(O)c1
inactive: dose: 3.12 mg/kg/injection, schedule: Q04DX002 (ip), vehicle: Klucel (hydroxypropylcellulose) (HPC) 97 % of control | dose: 6.25 mg/kg/injection, schedule: Q04DX002 (ip), vehicle: Klucel (hydroxypropylcellulose) (HPC) 108 % of control | dose: 12.5 mg/kg/injection, schedule: Q04DX002 (ip), vehicle: Klucel (hydroxypropylcellulose) (HPC) 101 % of control

C/C=C(\C)C(=O)Nc1cccc(OC(=O)NC)c1
inactive: [1] 91 % of control | [2] 88 % of control | [3] 91 % of control

CCOC(=O)NC(=S)Nc1ccccc1NC(=S)NC(=O)OCC
inactive: dose: 100.0 mg/kg/injection, schedule: Q04DX003 (ip), vehicle: gum acacia 97 % of control | dose: 200.0 mg/kg/injection, schedule: Q04DX003 (ip), vehicle: gum acacia 97 % of control | dose: 400.0 mg/kg/injection, schedule: Q04DX003 (ip), vehicle: gum acacia 94 % of control
